Biological target: T1, human PAD4 (Homo sapiens, UniProt Q9UM07)
T1 construct: human PAD4 (NM_012387), A2P663, was PCR amplified; His-SUMO (N, cleaved yes); made in house; host or cells: E. coli BL21(DE3)
Experiment: In vitro PAD4 BAEE biochemical assay
Conditions: human PAD4, BAEE substrate; 5 nM PAD4, 2 mM calcium chloride, 3 mM BAEE; geometric mean of multiple experiments
Outline: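 Tag-free recombinant hPAD4 (5 nM), 2 mM CaCl2, 3 mM BAEE, 50 mM MOPS pH 7.6, 2 mM DTT; 30 min compound preincubation, 2 h reaction, all 25 °C. EDTA quench; ammonia read via o-phthalaldehyde amine coupling, 1 h.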

T1 sequence (Q9UM07 2-663): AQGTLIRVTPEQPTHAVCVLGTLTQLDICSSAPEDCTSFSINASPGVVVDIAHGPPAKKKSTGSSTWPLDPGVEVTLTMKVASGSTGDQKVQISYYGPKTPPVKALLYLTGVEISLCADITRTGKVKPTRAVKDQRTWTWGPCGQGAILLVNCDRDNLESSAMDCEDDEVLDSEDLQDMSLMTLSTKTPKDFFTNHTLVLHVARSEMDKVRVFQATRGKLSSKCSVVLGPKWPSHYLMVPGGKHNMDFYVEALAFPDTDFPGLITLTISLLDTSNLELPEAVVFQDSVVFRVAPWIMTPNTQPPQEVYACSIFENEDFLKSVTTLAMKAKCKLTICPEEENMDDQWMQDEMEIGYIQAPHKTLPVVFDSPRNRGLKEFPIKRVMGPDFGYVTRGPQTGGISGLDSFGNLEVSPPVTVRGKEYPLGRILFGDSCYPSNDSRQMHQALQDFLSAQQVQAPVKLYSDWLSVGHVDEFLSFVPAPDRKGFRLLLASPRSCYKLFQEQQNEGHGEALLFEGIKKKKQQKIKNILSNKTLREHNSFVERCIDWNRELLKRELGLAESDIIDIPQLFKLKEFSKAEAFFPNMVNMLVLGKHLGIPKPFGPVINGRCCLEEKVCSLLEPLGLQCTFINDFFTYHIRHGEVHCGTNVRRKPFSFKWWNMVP

Compound | IC50 [nM]
COc1cc(C(=O)N[C@H]2CNCC[C@@H]2OC)cc2nc(-c3cc4ccc(N(C(F)F)S(C)(=O)=O)nc4n3CC3CC3)c(C)n12 [Example 285, 2-[1-(cyclopropylmethyl)-6-[difluoromethyl (methylsulfonyl)amino]pyrrolo[2,3-b]pyridin-2-yl]-5-methoxy-~ {N}-[(3~{S},4~{S})-4-methoxypiperidin-3-yl]-3-methylimidazo[1,2-a] pyridine-7-carboxamide] | 14000
COc1cc(C(=O)N2[C@H]3CC[C@@H]2[C@H](N)C3)cc2nc(-c3cc4ccc([C@@H](C)NC(=O)C(C)(C)CO)nc4n3CC3CC3)c(C3CC3)n12 [Example 86, ~{N}-[(1~{R})-1-[2-[7-[(1~{R},2~{R},4~{S})-2-amino-7-azabicyclo[2.2.1]heptane-7-carbonyl]-3-cyclopropyl-5-methoxyimidazo [1,2-a]pyridin-2-yl]-1-(cyclopropylmethyl)pyrrolo [2,3-b]pyridin-6-yl]ethyl]-3-hydroxy-2,2-dimethylpropanamide] | 57.8
CCc1cc(C(=O)N2CCC[C@@H](N)C2)cc2nc(-c3cc4ccc(N(C(F)F)S(C)(=O)=O)nc4n3CC3CC3)c(C)n12 [Example 427, ~{N}-[2-[7-[(3~{R})-3-aminopiperidine-1-carbonyl]-5-ethyl-3-methylimidazo [1,2-a]pyridin-2-yl]-1-(cyclopropylmethyl)pyrrolo [2,3-b]pyridin-6-yl]-~{N}-(difluoromethyl) methanesulfonamide] | 94.7
COc1cc(C(=O)N2C[C@H]3CCCN[C@H]3C2)cc2nc(-c3cc4ccc([C@@H](C)NC(=O)c5ccccc5)nc4n3CC3CC3)c(C)n12 [Example 58, ~{N}-[(1~{R})-1-[2-[7-[(4~{a}~{R}, 7~{a}~{R})-1,2,3,4,4~{a},5,7,7~{a}-octahydropyrrolo[3,4-b]pyridine-6-carbonyl]-5-methoxy-3-methylimidazo[1,2-a]pyridin-2-yl]-1-(cyclopropylmethyl)pyrrolo[2,3-b]pyridin-6-yl]ethyl]benzamide] | 771
CCC(CC(=O)N1CCCC1)c1ccc2cc(-c3nc4cc(C(=O)N5[C@H]6CC[C@@H]5[C@H](N)C6)cc(OC)n4c3C)n(CC3CC3)c2n1 (stereo partly drawn) [Example 540, 3-[2-[7-[(1~{R},2~{R}, 4~{S})-2-amino-7-azabicyclo[2.2.1]heptane-7-carbonyl]-5-methoxy-3-methylimidazo[1,2-a]pyridin-2-yl]-1-(cyclopropylmethyl)pyrrolo[2,3-b]pyridin-6-yl]-1-pyrrolidin-1-ylpentan-1-one] | 102
COc1cc(C(=O)N2[C@H]3CC[C@@H]2[C@H](N)C3)cc2nc(-c3cc4ccc(OCc5ccccc5)nc4n3CC3CC3)c(C)n12 [Example 627, [(1~{R},2~{R},4~{S})-2-amino-7-azabicyclo [2.2.1]heptan-7-yl]-[2-[1-(cyclopropylmethyl)-6-phenylmethoxypyrrolo[2,3-b]pyridin-2-yl]-5-methoxy-3-methylimidazo[1,2-a]pyridin-7-yl]methanone] | 3360
COc1cc(C(=O)N2CCC3(CNC3)C2)cc2nc(-c3cc4ccc(N(C(F)F)S(C)(=O)=O)nc4n3CC3CC3)c(C)n12 [Example 380, ~{N}-[1-(cyclopropylmethyl)-2-[7-(2,6-diazaspiro[3.4]octane-6-carbonyl)-5-methoxy-3-methylimidazo[1,2-a]pyridin-2-yl]pyrrolo[2,3-b]pyridin-6-yl]-~{N}-(difluoromethyl) methanesulfonamide] | 24700
COc1cc(C(=O)N2CCC[C@@H](N)C2)cc2nc(-c3cc4ccc([C@@H](C)NC(=O)C(C)(C)C)nc4n3CC3CC3)c(C3CC3)n12 [Example 143, ~{N}-[(1~{R})-1-[2-[7-[(3~{R})-3-aminopiperidine-1-carbonyl]-3-cyclopropyl-5-methoxyimidazo [1,2-a]pyridin-2-yl]-1-(cyclopropylmethyl)pyrrolo [2,3-b]pyridin-6-yl]ethyl]-2,2-dimethylpropanamide] | 139
COc1cc(C(=O)N2CCC[C@@H](N)C2)cc2nc(-c3cc4ccc(N(C)S(C)(=O)=O)nc4n3CC3CC3)c(C)n12 [Example 482, ~{N}-[2-[7-[(3~{R})-3-aminopiperidine-1-carbonyl]-5-methoxy-3-methylimidazo[1,2-a]pyridin-2-yl]-1-(cyclopropylmethyl)pyrrolo [2,3-b]pyridin-6-yl]-~{N}-methylmethanesulfonamide] | 171
COc1cc(C(=O)N2CCC[C@@H](N)C2)cc2nc(-c3cc4ccc([C@@H](C)N5CCCC5=O)nc4n3CC3CC3)c(C)n12 [Example 279, 1-[(1~{R})-1-[2-[7-[(3~{R})-3-aminopiperidine-1-carbonyl]-5-methoxy-3-methylimidazo [1,2-a]pyridin-2-yl]-1-(cyclopropylmethyl)pyrrolo [2,3-b]pyridin-6-yl]ethyl] pyrrolidin-2-one] | 234

Further compounds by falling IC50, results first:

IC50 [nM] | Compound
30000 | COc1cc(C(=O)N[C@@H]2CC[C@H]3CC[C@@H]2N3)cc2nc(-c3cc4ccc(N(C(F)F)S(C)(=O)=O)nc4n3CC3CC3)c(C)n12 [Example 298, ~{N}-[(1~{S},2~{R}, 5~{R})-8-azabicyclo [3.2.1]octan-2-yl]-2-[1-(cyclopropylmethyl)-6-[difluoromethyl (methylsulfonyl)amino]pyrrolo[2,3-b]pyridin-2-yl]-5-methoxy-3-methylimidazo[1,2-a]pyridine-7-carboxamide]
886 | COc1cc(C(=O)N2CC[C@H]3CCCN[C@H]3C2)cc2nc(-c3cc4ccc(N(C(F)F)S(C)(=O)=O)nc4n3CC3CC3)c(C3CC3)n12 [Example 310, ~{N}-[2-[7-[(4~{a}~{R},8~{a}~{R})-2,3,4,4~{a},5,6,8,8~{a}-octahydro-1~{H}-1,7-naphthyridine-7-carbonyl]-3-cyclopropyl-5-methoxyimidazo [1,2-a]pyridin-2-yl]-1-(cyclopropylmethyl)pyrrolo [2,3-b]pyridin-6-yl]-~{N}-(difluoromethyl) methanesulfonamide]
867 | COc1cc(C(=O)N2[C@H]3CC[C@@H]2[C@H](N)C3)cc2nc(-c3cc4ccc([C@@H](C)Nc5cccc(Cl)n5)nc4n3CC3CC3)c(C)n12 [Example 262, [(1~{R},2~{R},4~{S})-2-amino-7-azabicyclo [2.2.1]heptan-7-yl]-[2-[6-[(1~{R})-1-[(6-chloropyridin-2-yl)amino]ethyl]-1-(cyclopropylmethyl)pyrrolo[2,3-b]pyridin-2-yl]-5-methoxy-3-methylimidazo[1,2-a]pyridin-7-yl]methanone]
156 | COc1cc(C(=O)N2C[C@H](N)CC[C@@H]2C)cc2nc(-c3cc4ccc(N(C(F)F)S(C)(=O)=O)nc4n3CC3CC3)c(C)n12 [Example 412, ~{N}-[2-[7-[(2~{S},5~{R})-5-amino-2-methylpiperidine-1-carbonyl]-5-methoxy-3-methylimidazo [1,2-a]pyridin-2-yl]-1-(cyclopropylmethyl)pyrrolo-[2,3b]pyridin-6-yl]-~{N}-(difluoromethyl) methanesulfonamide]
127 | COc1cc(C(=O)N2[C@H]3CC[C@@H]2[C@H](N)C3)cc2nc(-c3cc4ccc([C@@H](C)NC(=O)C(C)C(F)(F)F)nc4n3CC3CC3)c(C)n12 (stereo partly drawn) [Example 7, ~{N}-[(1~{R})-1-[2-[7-[(1~{R},2~{R},4~{S})-2-amino-7-azabicyclo [2.2.1]heptane-7-carbonyl]-5-methoxy-3-methylimidazo [1,2-a]pyridin-2-yl]-1-(cyclopropylmethyl)pyrrolo[2,3-b]pyridin-6-yl]ethyl]-3,3,3-trifluoro-2-methylpropanamide]

Source: patent US12240862B2, “Inhibitors of peptidylarginine deiminases” (Gilead Sciences, Inc., priority 2020, dated 2025)
